Counter-ions that a name gives are not always drawn. Blank lines part the entries; values can stand above or below the compound they belong to.
Tests used:
human IBAT = target: T1, human IBAT (Homo sapiens, UniProt Q12908); test: In vitro assay of IBAT-mediated uptake of [14C]-taurocholate (TC) in H14 cells; type: cell-based; conditions: In Vitro Taurocholate Uptake, Table 10; read-out: Human TC IC50
T1 construct: expressed in transfected cells; host or cells: Baby hamster kidney (BHK) cells, clone H14
T1 sequence (Q12908 1-348): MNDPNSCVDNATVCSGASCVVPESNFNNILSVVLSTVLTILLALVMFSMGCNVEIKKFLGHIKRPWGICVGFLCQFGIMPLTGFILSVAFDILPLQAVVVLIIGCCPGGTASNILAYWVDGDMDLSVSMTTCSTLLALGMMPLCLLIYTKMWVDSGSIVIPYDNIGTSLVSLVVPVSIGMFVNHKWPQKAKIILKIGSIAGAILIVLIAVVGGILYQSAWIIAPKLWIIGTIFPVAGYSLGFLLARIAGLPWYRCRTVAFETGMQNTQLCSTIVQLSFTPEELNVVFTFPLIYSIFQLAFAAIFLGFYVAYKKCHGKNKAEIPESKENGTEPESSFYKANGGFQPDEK
Method in brief: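 BHK cells stably expressing human IBAT (H14) were incubated 2 h at 37° C with compound and 3 μM final [14C]-taurocholate in DMEM (4.5 g/L glucose) plus 0.2% fatty acid-free BSA. After cold PBS washes, cell-associated radioactivity was measured by scintillation counting.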

fecal bile acid (FBA) = test: Rat gavage assay (fecal bile acid increase); type: in vivo
Method: Male Wister rats (275-300 g) are administered IBAT inhibitors using an oral gavage procedure. Drug or vehicle (0.2% Tween 80 in water) is administered once a day (9:00-10:0 a.m.) for 4 days at varying dosages in a final volume of 2 mL per kilogram of body weight. Total fecal samples are collected during the final 48 hours of the treatment period and analyzed for bile acid content using an enzymatic assay as described below. Compound efficacy is determined by comparison of the increase in fecal bile acid (FBA) concentration in treated rats to the mean FBA concentration of rats in the vehicle group.
Measurement of Fecal Bile Acid Concentration (FBA)
Total fecal output from individually housed hamsters was collected for 24 or 48 hours, dried under a stream of nitrogen, pulverized and weighed. Approximately 0.1 gram was weighed out and extracted into an organic solvent (butanol/water). Following separation and drying, the residue was dissolved in methanol and the amount of bile acid present was measured enzymatically using the 3α-hydroxysteroid steroid dehydrogenase reaction with bile acids to reduce NAD. (Reference: Mashige, F., et al. (1981) Clin. Chem. 27, 1352).

SMILES: CCCCC1(CCCC)CS(=O)(=O)c2ccc(N(C)C)cc2[C@@H](c2ccc(OCC(=O)NCC(=O)O)cc2)[C@H]1O [Example 1403]
IC50 (human IBAT): 23 nM
Delta (micromoles fecal bile acid per day) (fecal bile acid (FBA); dose 2 mg/kg/day): 41.6 micromoles fecal bile acid per day
Delta (micromoles fecal bile acid per day) (fecal bile acid (FBA); dose .016 mg/kg/day): 3 micromoles fecal bile acid per day
Delta (micromoles fecal bile acid per day) (fecal bile acid (FBA); dose .08 mg/kg/day): 11.9 micromoles fecal bile acid per day
Delta (micromoles fecal bile acid per day) (fecal bile acid (FBA); dose .4 mg/kg/day): 35.2 micromoles fecal bile acid per day

SMILES: CCCCC1(CCCC)CS(=O)(=O)c2ccc(N(C)C)cc2[C@@H](c2ccc(OCCCCC(=O)O)cc2)[C@H]1O [Example 1404, (4R-cis)-5-[4-[3,3-Dibutyl-7-(dimethylamino)-2,3,4,5-tetrahydro-4-hydroxy-1,1-dioxido-1-benzothiepin-5-yl]phenoxy]pentanoic Acid]
IC50 (human IBAT): 10 nM
Delta (micromoles fecal bile acid per day) (fecal bile acid (FBA); dose 5 mg/kg/day): 93.7 micromoles fecal bile acid per day
Delta (micromoles fecal bile acid per day) (fecal bile acid (FBA); dose .04 mg/kg/day): 33.5 micromoles fecal bile acid per day
Delta (micromoles fecal bile acid per day) (fecal bile acid (FBA); dose .2 mg/kg/day): 59.1 micromoles fecal bile acid per day

SMILES: CCCCC1(CCCC)CS(=O)(=O)c2ccc(N(C)C)cc2[C@@H](c2ccc(OCCC[N+]34CCN(CC3)CC4)cc2)[C@H]1O [Example 1406, (4R-cis)-1-[3-[4-[3,3-Dibutyl-7-(dimethylamino)-2,3,4,5-tetrahydro-4-hydroxy-1,1-dioxido-1-benzothiepin-5-yl]phenoxy]propyl]-4-aza-1-azoniabicyclo[2.2.2]octane, Methanesulfonate (Salt)]
IC50 (human IBAT): 4 nM
Delta (micromoles fecal bile acid per day) (fecal bile acid (FBA); dose 2 mg/kg/day): 47.8 micromoles fecal bile acid per day
Delta (micromoles fecal bile acid per day) (fecal bile acid (FBA); dose .016 mg/kg/day): −8.5 micromoles fecal bile acid per day
Delta (micromoles fecal bile acid per day) (fecal bile acid (FBA); dose .08 mg/kg/day): 12.8 micromoles fecal bile acid per day
Delta (micromoles fecal bile acid per day) (fecal bile acid (FBA); dose .4 mg/kg/day): 31.6 micromoles fecal bile acid per day

SMILES: CCCCC1(CCCC)CS(=O)(=O)c2ccc(N(C)C)cc2[C@@H](c2ccc(OCCCCCN(CC)CC)cc2)[C@H]1O [Example 1414, (4R-cis)-3,3-Dibutyl-5-[4-[[5-(diethylamino)pentyl]oxy]phenyl]-7-(dimethylamino)-2,3,4,5-tetrahydro-1-benzothiepin-4-ol 1,1-dioxide]
IC50 (human IBAT): 15 nM
Delta (micromoles fecal bile acid per day) (fecal bile acid (FBA); dose 2 mg/kg/day): 41.5 micromoles fecal bile acid per day
Delta (micromoles fecal bile acid per day) (fecal bile acid (FBA); dose 5 mg/kg/day): 45.2 micromoles fecal bile acid per day
Delta (micromoles fecal bile acid per day) (fecal bile acid (FBA); dose .016 mg/kg/day): 3.8 micromoles fecal bile acid per day
Delta (micromoles fecal bile acid per day) (fecal bile acid (FBA); dose .04 mg/kg/day): 14.3 micromoles fecal bile acid per day
Delta (micromoles fecal bile acid per day) (fecal bile acid (FBA); dose .08 mg/kg/day): 29 micromoles fecal bile acid per day
Delta (micromoles fecal bile acid per day) (fecal bile acid (FBA); dose .2 mg/kg/day): 39.5 micromoles fecal bile acid per day
Delta (micromoles fecal bile acid per day) (fecal bile acid (FBA); dose .4 mg/kg/day): 33.7 micromoles fecal bile acid per day

SMILES: CCCCC1(CCCC)CS(=O)(=O)c2ccc(N(C)C)cc2[C@@H](c2ccc(OCCCCCN(CCN(CC)CC)CCN(CC)CC)cc2)[C@H]1O [Example 1416, (4R-cis)-5-[4-[[5-[bis[2-(Diethylamino)ethyl]amino]pentyl]oxy]phenyl]-3,3-dibutyl-7-(dimethylamino)-2,3,4,5-tetrahydro-1-benzothiepin-4-ol 1,1-dioxide]
IC50 (human IBAT): 14 nM
Delta (micromoles fecal bile acid per day) (fecal bile acid (FBA); dose 2 mg/kg/day): 46.1 micromoles fecal bile acid per day
Delta (micromoles fecal bile acid per day) (fecal bile acid (FBA); dose .016 mg/kg/day): −7.8 micromoles fecal bile acid per day
Delta (micromoles fecal bile acid per day) (fecal bile acid (FBA); dose .08 mg/kg/day): 25 micromoles fecal bile acid per day
Delta (micromoles fecal bile acid per day) (fecal bile acid (FBA); dose .4 mg/kg/day): 21.9 micromoles fecal bile acid per day

The next compounds have a lower IC50 (human IBAT) than those just listed; values first:

IC50 (human IBAT): 2 nM
SMILES: CCCCC1(CCCC)CS(=O)(=O)c2ccc(N(C)C)cc2[C@@H](c2ccc(OCCCC[N+](CC)(CC)CC)cc2)[C@H]1O.CS(=O)(=O)[O-] [Example 1410, (4R-cis)-4-[4-[3,3-Dibutyl-7-(dimethylamino)-2,3,4,5-tetrahydro-4-hydroxy-1,1-dioxido-1-benzothiepin-5-yl]phenoxy]-N,N,N-triethyl-1-butanaminium]
Delta (micromoles fecal bile acid per day) (fecal bile acid (FBA); dose 2 mg/kg/day): 26.2 micromoles fecal bile acid per day
Delta (micromoles fecal bile acid per day) (fecal bile acid (FBA); dose .016 mg/kg/day): 20.4 micromoles fecal bile acid per day
Delta (micromoles fecal bile acid per day) (fecal bile acid (FBA); dose .08 mg/kg/day): 18.5 micromoles fecal bile acid per day
Delta (micromoles fecal bile acid per day) (fecal bile acid (FBA); dose .4 mg/kg/day): 36.5 micromoles fecal bile acid per day

IC50 (human IBAT): 2 nM
SMILES: CCCCC1(CCCC)CS(=O)(=O)c2ccc(N(C)C)cc2[C@@H](c2ccc(OCCCC[n+]3cccc(O)c3)cc2)[C@H]1O.CS(=O)(=O)[O-] [Example 1411, (4R-cis)-1-[4-[4-[3,3-Dibutyl-7-(dimethylamino)-2,3,4,5-tetrahydro-4-hydroxy-1,1-dioxido-1-benzothiepin-5-yl]phenoxy]butyl]-3-hydroxypyridinium, methanesulfonate (Salt)]
Delta (micromoles fecal bile acid per day) (fecal bile acid (FBA); dose 2 mg/kg/day): 63.4 micromoles fecal bile acid per day
Delta (micromoles fecal bile acid per day) (fecal bile acid (FBA); dose .016 mg/kg/day): 22.3 micromoles fecal bile acid per day
Delta (micromoles fecal bile acid per day) (fecal bile acid (FBA); dose .08 mg/kg/day): 33 micromoles fecal bile acid per day
Delta (micromoles fecal bile acid per day) (fecal bile acid (FBA); dose .4 mg/kg/day): 54.1 micromoles fecal bile acid per day

IC50 (human IBAT): 2 nM
SMILES: CCCCC1(CCCC)CS(=O)(=O)c2ccc(N(C)C)cc2[C@@H](c2ccc(OCCCCCN(CC(=O)O)CC(=O)O)cc2)[C@H]1O [Example 1415, (4R-cis)-N-(Carboxymethyl)-N-[5-[4-[3,3-dibutyl-7-(dimethylamino)-2,3,4,5-tetrahydro-4-hydroxy-1,1-dioxido-1-benzothiepin-5-yl]phenoxy]pentyl]glycine]
Delta (micromoles fecal bile acid per day) (fecal bile acid (FBA); dose 2 mg/kg/day): 48.9 micromoles fecal bile acid per day
Delta (micromoles fecal bile acid per day) (fecal bile acid (FBA); dose 5 mg/kg/day): 59.9 micromoles fecal bile acid per day
Delta (micromoles fecal bile acid per day) (fecal bile acid (FBA); dose .016 mg/kg/day): 12.7 micromoles fecal bile acid per day
Delta (micromoles fecal bile acid per day) (fecal bile acid (FBA); dose .04 mg/kg/day): 23.9 micromoles fecal bile acid per day
Delta (micromoles fecal bile acid per day) (fecal bile acid (FBA); dose .08 mg/kg/day): 27.1 micromoles fecal bile acid per day
Delta (micromoles fecal bile acid per day) (fecal bile acid (FBA); dose .2 mg/kg/day): 48.1 micromoles fecal bile acid per day
Delta (micromoles fecal bile acid per day) (fecal bile acid (FBA); dose .4 mg/kg/day): 25.7 micromoles fecal bile acid per day

IC50 (human IBAT): 2 nM
SMILES: CCCCC1(CCCC)CS(=O)(=O)c2ccc(N(C)C)cc2[C@@H](c2ccc(OCCCCCNCCc3cnc[nH]3)cc2)[C@H]1O [Example 1417, (4R-cis)-3,3-Dibutyl-7-(dimethylamino)-2,3,4,5-tetrahydro-5-[4-[[5-[[2-(1H-imidazol-4-yl)ethyl]amino]pentyl]oxy]phenyl]-1-benzothiepin-4-ol 1,1-dioxide]
Delta (micromoles fecal bile acid per day) (fecal bile acid (FBA); dose 2 mg/kg/day): 51.4 micromoles fecal bile acid per day
Delta (micromoles fecal bile acid per day) (fecal bile acid (FBA); dose .016 mg/kg/day): 29.3 micromoles fecal bile acid per day
Delta (micromoles fecal bile acid per day) (fecal bile acid (FBA); dose .08 mg/kg/day): 39.6 micromoles fecal bile acid per day
Delta (micromoles fecal bile acid per day) (fecal bile acid (FBA); dose .4 mg/kg/day): 42 micromoles fecal bile acid per day

IC50 (human IBAT): 3 nM
SMILES: CCCCC1(CCCC)CS(=O)(=O)c2ccc(N(C)C)cc2[C@@H](c2ccc(OCCCCCNCC(=O)O)cc2)[C@H]1O [Example 1423, (4R-cis)-N-[5-[4-[3,3-Dibutyl-7-(dimethylamino)-2,3,4,5-tetrahydro-4-hydroxy-1,1-dioxido-1-benzothiepin-5-yl]phenoxy]pentyl]glycine]
Delta (micromoles fecal bile acid per day) (fecal bile acid (FBA); dose 2 mg/kg/day): 56.5 micromoles fecal bile acid per day
Delta (micromoles fecal bile acid per day) (fecal bile acid (FBA); dose .016 mg/kg/day): 14.4 micromoles fecal bile acid per day
Delta (micromoles fecal bile acid per day) (fecal bile acid (FBA); dose .08 mg/kg/day): 35.3 micromoles fecal bile acid per day
Delta (micromoles fecal bile acid per day) (fecal bile acid (FBA); dose .4 mg/kg/day): 69.3 micromoles fecal bile acid per day

IC50 (human IBAT): 2 nM
SMILES: CCCCC1(CCCC)CS(=O)(=O)c2ccc(N(C)C)cc2[C@@H](c2ccc(OCc3ccc(C[n+]4ccccc4)cc3)cc2)[C@H]1O.[Cl-] [Example 1425, (4R-cis)-1-[[4-[[4-[3,3-Dibutyl-7-(dimethylamino)-2,3,4,5-tetrahydro-4-hydroxy-1,1-dioxido-1-benzothiepin-5-yl]phenoxy]methyl]phenyl]methyl]-pyridinium chloride]
Delta (micromoles fecal bile acid per day) (fecal bile acid (FBA); dose 5 mg/kg/day): 91.8 micromoles fecal bile acid per day
Delta (micromoles fecal bile acid per day) (fecal bile acid (FBA); dose .04 mg/kg/day): 66.4 micromoles fecal bile acid per day
Delta (micromoles fecal bile acid per day) (fecal bile acid (FBA); dose .2 mg/kg/day): 100. micromoles fecal bile acid per day

Reference: patent publication US6784201B2, “Benzothiepines having activity as inhibitors of ileal bile acid transport and taurocholate uptake” (G.D. Searle & Company, priority 1994, dated 2004)
